Where a name gives a salt, the structure may show the parent alone. Read-outs that look alike come from different tables or passages of the source.
Legend:
[1] = cited from earlier work; for anti-senile dementia activity: Int. J. Clin. Pharmacol. Ther. Toxicol. 29, 23-37, 1991
Acetylcholinesterase = target: T1, Acetylcholinesterase (Rattus norvegicus, UniProt P37136); assay: biochemical; set-up: species or system male Wistar rat
T1 construct: using the S1 fraction of a male Wistar rat cerebral cortex homogenate as a source of cholinesterase; from tissue; host or cells: male Wistar rat cerebral cortex homogenate, S1 fraction
Experimental: The cholinesterase inhibitory activity of the compound of this invention was evaluated using (acetyl[[^3 H])-acetylcholine. Thus, using the S1 fraction of a male Wistar rat cerebral cortex homogenate as a source of cholinesterase, (acetyl[^3 H])-acetylcholine as a substrate, and the compound of this invention as a test substance, the system was incubated for 30 minutes. The reaction was then stopped and a toluenic scincillator was added. After shaking, [^3 H]-acetic acid produced and transferred into the toluene layer was counted with a liquid scincillation counter to estimate the cholinesterase inhibitory activity of the test substance.

[2] = tested on: serotonin (5-HT) reuptake; assay: monoamine reuptake inhibitory activity, [^3 H]-serotonin (5-HT); format: biochemical, male JCl: Wistar rats; conditions: [^3 H]-5-HT 10 nM; P2 pellet of rat cerebral cortex and hippocampus; 37° C., 5 minutes; read-out: Monoamine uptake inhibitory activity IC50, 5-HT
Experimental: (§1) The monoamine reuptake inhibitory activity of the compound of this invention was evaluated using [^3 H]-norepinephrine (NE) and [^3 H]-serotonin(5-HT).
(§2) Thus, the brain was enuleated from male JCl: Wistar rats (aged 9-13 weeks) and the cerebral cortex and the hippocampus were isolated. The tissue was homogenized (Potter, 5 strokes) with about 10-15 volumes of ice-cooled 0.32M sucrose and centrifuged at 1.000×g for 10 minutes. The supernatant was further centrifuged at 20,000×g for 20 minutes to provide a pellet (P2). This pellet was suspended in Krebs-Ringer bicarbonate solution (KRB) (KRB: 116 mM NaCl, 4.8 mM KCl, 1.3 mM CaCl2, 1,2 mM MgSO4, 1,2 mM NaH2 PO4, 25 mM NaHCO3, 0.1 mM EDTA-2Na, 11.1 mM D-glucose, 0.11 mM L-ascorbic acid, 0.01 mM pargyline-HCl; 95% O2 /5% CO2) and aliquots of the suspension were used for assays.
(§3) The test compound (10 μl as dissolved in DMSO at 100 times the final concentration) was mixed with 900 μl of the P2 suspension and the mixture was preincubated at 37° C. for 5 minutes. Then, 100 μl of [^3 H]-NE (final concentration 11 nM) or [^3 H]-5-HT (final concentration 10 nM) was added and the mixture was incubated at 37° C. for 5 minutes. […] The filter was transferred to a minature vial, 4 ml of scintillator was added, and the radioactivity was counted with a liquid scintillation counter. […]

[3] = tested on: norepinephrine (NE) reuptake; assay: monoamine reuptake inhibitory activity, [^3 H]-norepinephrine (NE); format: biochemical, male JCl: Wistar rats; conditions: [^3 H]-NE 11 nM; P2 pellet of rat cerebral cortex and hippocampus; 37° C., 5 minutes; read-out: Monoamine uptake inhibitory activity IC50, NE
Experimental: as §1, §2, §3

[4] = S1 fraction of male Wistar rat cerebral cortex homogenate, 30 minutes incubation, read-out: Acetylcholinesterase inhibitory activity IC50

T1 sequence (P37136 32-614): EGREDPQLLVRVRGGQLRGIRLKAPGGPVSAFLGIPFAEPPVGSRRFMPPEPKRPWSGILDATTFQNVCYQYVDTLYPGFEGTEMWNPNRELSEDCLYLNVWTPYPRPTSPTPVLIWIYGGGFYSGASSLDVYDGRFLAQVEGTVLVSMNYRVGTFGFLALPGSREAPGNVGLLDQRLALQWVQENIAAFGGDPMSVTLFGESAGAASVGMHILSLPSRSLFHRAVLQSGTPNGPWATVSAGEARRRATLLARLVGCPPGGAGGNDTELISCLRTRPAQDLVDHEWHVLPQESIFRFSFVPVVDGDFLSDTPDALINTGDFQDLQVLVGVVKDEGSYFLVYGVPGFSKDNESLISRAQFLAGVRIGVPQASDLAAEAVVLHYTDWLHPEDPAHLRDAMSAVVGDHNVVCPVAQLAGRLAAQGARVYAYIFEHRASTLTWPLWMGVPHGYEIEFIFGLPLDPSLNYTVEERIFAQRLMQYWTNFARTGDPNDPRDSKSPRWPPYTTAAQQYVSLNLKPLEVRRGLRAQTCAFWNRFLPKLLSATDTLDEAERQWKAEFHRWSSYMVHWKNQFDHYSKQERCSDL

SMILES: CNC(=O)Oc1ccc2c(c1)[C@]1(C)CCN(C)[C@@H]1N2C (stereo in doubt) [Physostigmine, physostigmine]
- anti-senile dementia activity [1]: have been found to have anti-senile dementia activity
- duration of action ([1]; background): short duration of action
- toxic potential ([1]; background): high toxic potential

SMILES: O=C(CCN1CCN(Cc2ccccc2)CC1)c1cc2c3c(c1)C1CCCCC1N3C(=O)CC2 (stereo not drawn) [Example 1, 5-[3-[4-(Phenylmethyl)-1-piperazinyl]-1-oxopropyl]-2,3,6b,7,8,9,10,10a-octahydro-1H-pyrido[3,2,1-jk]carbazol-6-one dihydrochloride]
- IC50 (Acetylcholinesterase; [4]): 77.5 nM

SMILES: O=C(CCN1CCN(Cc2ccccc2)CC1)c1ccc2c(c1)CN1C(=O)c3ccccc3C1CC2 (stereo not drawn) [Example 2-1]
- IC50 [2]: 70 nM
- IC50 (Acetylcholinesterase; [4]): 16.4 nM
- IC50 [3]: 1040 nM

SMILES: O=C(CCC1CCN(Cc2ccccc2)CC1)c1ccc2c(c1)CN1C(=O)c3ccccc3C1CC2 (stereo not drawn) [Example 4, 3-[3-[1-(Phenylmethyl)-4-piperidinyl]-1-oxopropyl]-7,11b,12,13-tetrahydro-5H-isoindolo[2,1-b][2]benzazepin-7-one hydrochloride]
- IC50 (Acetylcholinesterase): 2.4 nM

SMILES: O=C(CCN1CCN(Cc2cccc(Cl)c2)CC1)c1ccc2c(c1)CN1C(=O)c3ccccc3C1CC2 (stereo not drawn) [Example 6-2]
- IC50 (Acetylcholinesterase; [4]): 65.5 nM

SMILES: O=C(CCN1CCN(Cc2cccc(F)c2)CC1)c1ccc2c(c1)CN1C(=O)c3ccccc3C1CC2 (stereo not drawn) [Example 6-3]
- IC50 (Acetylcholinesterase; [4]): 17.4 nM

SMILES: O=C(CCC1CCN(Cc2ccccc2)CC1)c1cc2c3c(c1)C1CCCCC1N3C(=O)CC2 (stereo not drawn) [Example 7, 5-[3-[1-(Phenylmethyl)-4-piperidinyl]1-oxopropyl]-2,3,6b, 7,8,9,10,10a-octahydro-1H-pyrido[3,2,1-jk]carbazol-6-one fumarate]
- IC50 (Acetylcholinesterase): 7.93 nM

SMILES: CN(C)CCCN1c2ccccc2CCc2ccccc21 [Imipramine, imipramine, reference compound]
- IC50 [2]: 63 nM
- IC50 [3]: 1120 nM

SMILES: Nc1c2c(nc3ccccc13)CCCC2 [THA, tacrine]
- anti-senile dementia activity [1]: have been found to have anti-senile dementia activity
- hepatic impairment ([1]; background): severe hepatic impairment is often associated

From patent publication US5620973A, “Tetracyclic condensed heterocyclic compounds and their use” (priority 1993, dated 1997)
